Reference: ChEMBL document CHEMBL3885881, “DrugMatrix”

Organism: Rattus norvegicus
Assay: DrugMatrix - Regimen: Daily Repeat
Format: toxicity, organism-based, Sprague-Dawley
Set-up: regimen Daily Repeat, gender Male, age 6-8 weeks
Conditions: in vivo, po, route oral GAVAGE, […]; for ABSOLUTE BASOPHIL / ABSOLUTE EOSINOPHIL / ABSOLUTE LYMPHOCYTE / ABSOLUTE MONOCYTE / ABSOLUTE SEGMENTED NEUTROPHIL / BASOPHIL / EOSINOPHIL / ERYTHROCYTE COUNT / HEMATOCRIT / HEMOGLOBIN / LEUKOCYTE COUNT / LYMPHOCYTE / MEAN CORPUSCULAR HEMOGLOBIN / MEAN CORPUSCULAR HEMOGLOBIN CONCENTRATION / MEAN CORPUSCULAR VOLUME / MONOCYTE / NEUTROPHIL / NUCLEATED RED BLOOD CELLS / PLATELET COUNT: tissue Blood; for ALANINE AMINOTRANSFERASE / ALBUMIN / ALKALINE PHOSPHATASE / ASPARTATE AMINOTRANSFERASE / BLOOD UREA NITROGEN / CARBON DIOXIDE / CHLORIDE / CHOLESTEROL / CREATINE PHOSPHOKINASE / CREATININE / GLUCOSE / LACTATE DEHYDROGENASE / LIPASE / PHOSPHORUS / POTASSIUM / SODIUM / TOTAL BILIRUBIN / TOTAL PROTEIN / URIC ACID: tissue Plasma
[1] = 0 mg/kg, 72 h, dose level Control, time 3 day
[2] = 0 mg/kg, 120 h, dose level Control, time 5 day
[3] = 30 mg/kg, 72 h, dose level Low, time 3 day
[4] = 30 mg/kg, 120 h, dose level Low, time 5 day

Compound: COc1ccc2[nH]c([S+]([O-])Cc3ncc(C)c(OC)c3C)nc2c1 (configuration not stated) [OMEPRAZOLE]
- ABSOLUTE BASOPHIL [1]: 0 CELLS/uL
- ABSOLUTE EOSINOPHIL [1]: 70.67 CELLS/uL
- ABSOLUTE LYMPHOCYTE [1]: 12761.5 CELLS/uL
- ABSOLUTE MONOCYTE [1]: 214.17 CELLS/uL
- ABSOLUTE SEGMENTED NEUTROPHIL [1]: 987 CELLS/uL
- BASOPHIL [1]: 0%
- EOSINOPHIL [1]: 0.5%
- ERYTHROCYTE COUNT [1]: 5.61 x10E6/uL
- HEMATOCRIT [1]: 35.22%
- HEMOGLOBIN [1]: 13.57 G/DL
- LEUKOCYTE COUNT [1]: 14.03 x10E3/uL
- LYMPHOCYTE [1]: 91%
- MEAN CORPUSCULAR HEMOGLOBIN [1]: 24.25 pg
- MEAN CORPUSCULAR HEMOGLOBIN CONCENTRATION [1]: 38.52 G/DL
- MEAN CORPUSCULAR VOLUME [1]: 62.9 fL
- MONOCYTE [1]: 1.5%
- NEUTROPHIL [1]: 7%
- NUCLEATED RED BLOOD CELLS [1]: 0 /100WBC
- PLATELET COUNT [1]: 997.5 x10E3/uL
- ALANINE AMINOTRANSFERASE [1]: 66.5 u/L
- ALBUMIN [1]: 3.98 G/DL
- ALKALINE PHOSPHATASE [1]: 350 u/L
- ASPARTATE AMINOTRANSFERASE [1]: 83.83 u/L
- BLOOD UREA NITROGEN [1]: 12.33 mg/dL
- CARBON DIOXIDE [1]: 30.33 mmol/L
- CHLORIDE [1]: 100 MEQ/L
- CHOLESTEROL [1]: 75 mg/dL
- CREATINE PHOSPHOKINASE [1]: 200 u/L
- CREATININE [1]: 0.17 mg/dL
- GLUCOSE [1]: 170 mg/dL
- LACTATE DEHYDROGENASE [1]: 89.33 u/L
- LIPASE [1]: 10.33 u/L
- PHOSPHORUS [1]: 10.88 mg/dL
- POTASSIUM [1]: 6.13 MEQ/L
- SODIUM [1]: 140.53 MEQ/L
- TOTAL BILIRUBIN [1]: 0.2 mg/dL
- TOTAL PROTEIN [1]: 5.67 G/DL
- URIC ACID [1]: 1.6 mg/dL
- ABSOLUTE BASOPHIL [2]: 0 CELLS/uL
- ABSOLUTE EOSINOPHIL [2]: 0 CELLS/uL
- ABSOLUTE LYMPHOCYTE [2]: 9526.67 CELLS/uL
- ABSOLUTE MONOCYTE [2]: 134.17 CELLS/uL
- ABSOLUTE SEGMENTED NEUTROPHIL [2]: 922.5 CELLS/uL
- BASOPHIL [2]: 0%
- EOSINOPHIL [2]: 0%
- ERYTHROCYTE COUNT [2]: 5.58 x10E6/uL
- HEMATOCRIT [2]: 34.78%
- HEMOGLOBIN [2]: 13.5 G/DL
- LEUKOCYTE COUNT [2]: 10.58 x10E3/uL
- LYMPHOCYTE [2]: 90.17%
- MEAN CORPUSCULAR HEMOGLOBIN [2]: 24.27 pg
- MEAN CORPUSCULAR HEMOGLOBIN CONCENTRATION [2]: 38.82 G/DL
- MEAN CORPUSCULAR VOLUME [2]: 62.48 fL
- MONOCYTE [2]: 1.17%
- NEUTROPHIL [2]: 8.67%
- NUCLEATED RED BLOOD CELLS [2]: 0.17 /100WBC
- PLATELET COUNT [2]: 807.17 x10E3/uL
- ALANINE AMINOTRANSFERASE [2]: 66.83 u/L
- ALBUMIN [2]: 3.73 G/DL
- ALKALINE PHOSPHATASE [2]: 286.17 u/L
- ASPARTATE AMINOTRANSFERASE [2]: 142.33 u/L
- BLOOD UREA NITROGEN [2]: 14.67 mg/dL
- CARBON DIOXIDE [2]: 25.5 mmol/L
- CHLORIDE [2]: 89.17 MEQ/L
- CHOLESTEROL [2]: 75.17 mg/dL
- CREATINE PHOSPHOKINASE [2]: 310.67 u/L
- CREATININE [2]: 0.2 mg/dL
- GLUCOSE [2]: 153 mg/dL
- LACTATE DEHYDROGENASE [2]: 1594 u/L
- LIPASE [2]: 14.83 u/L
- PHOSPHORUS [2]: 11.28 mg/dL
- POTASSIUM [2]: 8.46 MEQ/L
- SODIUM [2]: 126.88 MEQ/L
- TOTAL BILIRUBIN [2]: 0.37 mg/dL
- TOTAL PROTEIN [2]: 5.53 G/DL
- URIC ACID [2]: 1.52 mg/dL
- ABSOLUTE BASOPHIL [3]: 0 CELLS/uL
- ABSOLUTE EOSINOPHIL [3]: 80 CELLS/uL
- ABSOLUTE LYMPHOCYTE [3]: 11444.67 CELLS/uL
- ABSOLUTE MONOCYTE [3]: 85.33 CELLS/uL
- ABSOLUTE SEGMENTED NEUTROPHIL [3]: 690 CELLS/uL
- BASOPHIL [3]: 0%
- EOSINOPHIL [3]: 0.67%
- ERYTHROCYTE COUNT [3]: 5.41 x10E6/uL
- HEMATOCRIT [3]: 34.37%
- HEMOGLOBIN [3]: 13.77 G/DL
- LEUKOCYTE COUNT [3]: 12.3 x10E3/uL
- LYMPHOCYTE [3]: 93%
- MEAN CORPUSCULAR HEMOGLOBIN [3]: 25.47 pg
- MEAN CORPUSCULAR HEMOGLOBIN CONCENTRATION [3]: 40.07 G/DL
- MEAN CORPUSCULAR VOLUME [3]: 63.53 fL
- MONOCYTE [3]: 0.67%
- NEUTROPHIL [3]: 5.67%
- NUCLEATED RED BLOOD CELLS [3]: 0.67 /100WBC
- PLATELET COUNT [3]: 1225.33 x10E3/uL
- ALANINE AMINOTRANSFERASE [3]: 59.67 u/L
- ALBUMIN [3]: 4.03 G/DL
- ALKALINE PHOSPHATASE [3]: 348.67 u/L
- ASPARTATE AMINOTRANSFERASE [3]: 77.33 u/L
- BLOOD UREA NITROGEN [3]: 12 mg/dL
- CARBON DIOXIDE [3]: 29.33 mmol/L
- CHLORIDE [3]: 101 MEQ/L
- CHOLESTEROL [3]: 72.33 mg/dL
- CREATINE PHOSPHOKINASE [3]: 303.67 u/L
- CREATININE [3]: 0.14 mg/dL
- GLUCOSE [3]: 175.33 mg/dL
- LACTATE DEHYDROGENASE [3]: 111 u/L
- LIPASE [3]: 10.33 u/L
- PHOSPHORUS [3]: 12.23 mg/dL
- POTASSIUM [3]: 6.24 MEQ/L
- SODIUM [3]: 143.63 MEQ/L
- TOTAL BILIRUBIN [3]: 0.17 mg/dL
- TOTAL PROTEIN [3]: 5.8 G/DL
- URIC ACID [3]: 1.57 mg/dL
- ABSOLUTE BASOPHIL [4]: 0 CELLS/uL
- ABSOLUTE EOSINOPHIL [4]: 0 CELLS/uL
- ABSOLUTE LYMPHOCYTE [4]: 8312.33 CELLS/uL
- ABSOLUTE MONOCYTE [4]: 87.33 CELLS/uL
- ABSOLUTE SEGMENTED NEUTROPHIL [4]: 233.67 CELLS/uL
- BASOPHIL [4]: 0%
- EOSINOPHIL [4]: 0%
- ERYTHROCYTE COUNT [4]: 6.01 x10E6/uL
- HEMATOCRIT [4]: 36%
- HEMOGLOBIN [4]: 13.93 G/DL
- LEUKOCYTE COUNT [4]: 8.63 x10E3/uL
- LYMPHOCYTE [4]: 96.33%
- MEAN CORPUSCULAR HEMOGLOBIN [4]: 23.2 pg
- MEAN CORPUSCULAR HEMOGLOBIN CONCENTRATION [4]: 38.73 G/DL
- MEAN CORPUSCULAR VOLUME [4]: 59.9 fL
- MONOCYTE [4]: 1%
- NEUTROPHIL [4]: 2.67%
- NUCLEATED RED BLOOD CELLS [4]: 0 /100WBC
- PLATELET COUNT [4]: 1213.33 x10E3/uL
- ALANINE AMINOTRANSFERASE [4]: 65 u/L
- ALBUMIN [4]: 4.2 G/DL
- ALKALINE PHOSPHATASE [4]: 440.33 u/L
- ASPARTATE AMINOTRANSFERASE [4]: 88.67 u/L
- BLOOD UREA NITROGEN [4]: 14 mg/dL
- CARBON DIOXIDE [4]: 30 mmol/L
- CHLORIDE [4]: 98.67 MEQ/L
- CHOLESTEROL [4]: 69 mg/dL
- CREATINE PHOSPHOKINASE [4]: 217.67 u/L
- CREATININE [4]: 0.27 mg/dL
- GLUCOSE [4]: 163.33 mg/dL
- LACTATE DEHYDROGENASE [4]: 152.67 u/L
- LIPASE [4]: 11.67 u/L
- PHOSPHORUS [4]: 11.43 mg/dL
- POTASSIUM [4]: 5.8 MEQ/L
- SODIUM [4]: 144.67 MEQ/L
- TOTAL BILIRUBIN [4]: 0.17 mg/dL
- TOTAL PROTEIN [4]: 6.1 G/DL
- URIC ACID [4]: 1 mg/dL
